Reference: the supplement of paper PMC11061612

Tests used:
Olaparib = compound: O=C(c1cc(Cc2n[nH]c(=O)c3ccccc23)ccc1F)N1CCN(C(=O)C2CC2)CC1 [Olaparib]; details: max 10 µM
How it was run: (§1)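 In 1536-well plates, cancer cell lines in 7.5 μl DMEM/F12 or RPMI with 10% FBS spent 24 hours at 37°C and 5% CO2 and were then dosed for 72 hours with final DMSO typically 0.2%. Viability was read by CellTiter-Glo 2.0 luminescence and scaled between blank-well and DMSO-well means. The single-agent IC50 was fitted from dose responses using a logistic curve in a non-linear mixed effects model, and that logistic curve had two parameters.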

Lapatinib = compound: CS(=O)(=O)CCNCc1ccc(-c2ccc3ncnc(Nc4ccc(OCc5cccc(F)c5)c(Cl)c4)c3c2)o1 [Lapatinib]; details: max 10 µM
How it was run: as §1

AZD5153 = compound: COc1nnc2ccc(N3CCC(c4ccc(OCCN5CCN(C)C(=O)[C@H]5C)cc4)CC3)nn12 [AZD5153]; details: max 1 µM
How it was run: as §1

AZD0156 = compound: CN(C)CCCOc1ccc(-c2ccc3ncc4c(c3c2)n(C2CCOCC2)c(=O)n4C)cn1 [AZD0156]; details: max 3 µM
How it was run: as §1

AZD4320 = compound: CN(CC[C@H](CSC1=CC=CC=C1)NC2=C(C=C(C=C2)S(=O)(=O)NC(=O)C3=CC=C(C=C3)N4CCC(CC4)[C@H](C5=CC=CC=C5C6=CC=C(C=C6)Cl)O)S(=O)(=O)C(F)(F)F)CCO [AZD4320]; details: max 1 µM
How it was run: as §1

SN-38 = compound: CCc1c2c(nc3ccc(O)cc13)-c1cc3c(c(=O)n1C2)COC(=O)[C@]3(O)CC [SN-38]; details: max 0.3 µM
How it was run: as §1

SG3199 = compound: CC1=CN2[C@@H](C1)C=NC3=CC(=C(C=C3C2=O)OC)OCCCCCOC4=C(C=C5C(=C4)N=C[C@@H]6CC(=CN6C5=O)C)OC [SG3199]; details: max 0.001 µM
How it was run: as §1

Savolitinib = compound: C[C@@H](c1ccc2nccn2c1)n1nnc2ncc(-c3cnn(C)c3)nc21 [Savolitinib]; details: max 1 µM
How it was run: as §1

AZD5991 = compound: Cc1c2c(nn1C)CSCc1cc(n(C)n1)CSc1cc(c3ccccc3c1)OCCCc1c(C(=O)O)n(C)c3c-2c(Cl)ccc13 [AZD5991]; details: max 1 µM
How it was run: as §1

AZD2811 = compound: CCN(CCO)CCCOc1ccc2c(Nc3cc(CC(=O)Nc4cccc(F)c4)[nH]n3)ncnc2c1 [AZD2811]; details: max 1 µM
How it was run: as §1

Taselisib = compound: Cc1nc(-c2cn3c(n2)-c2ccc(-c4cnn(C(C)(C)C(N)=O)c4)cc2OCC3)n(C(C)C)n1 [Taselisib]; details: max 10 µM
How it was run: as §1

AZD1390 = compound: CC(C)n1c(=O)n(C)c2cnc3cc(F)c(-c4ccc(OCCCN5CCCCC5)nc4)cc3c21 [AZD1390]; details: max 0.3 µM
How it was run: as §1

Selumetinib = compound: Cn1cnc2c(F)c(Nc3ccc(Br)cc3Cl)c(C(=O)NOCCO)cc21 [Selumetinib]; details: max 10 µM
How it was run: as §1

Capivasertib = compound: C1CN(CCC1(C(=O)N[C@@H](CCO)C2=CC=C(C=C2)Cl)N)C3=NC=NC4=C3C=CN4 [Capivasertib]; details: max 10 µM
How it was run: as §1

Crizotinib = compound: C[C@@H](Oc1cc(-c2cnn(C3CCNCC3)c2)cnc1N)c1c(Cl)ccc(F)c1Cl [Crizotinib]; details: max 10 µM
How it was run: as §1

Alisertib = compound: COc1cc(Nc2ncc3c(n2)-c2ccc(Cl)cc2C(c2c(F)cccc2OC)=NC3)ccc1C(=O)O [Alisertib]; details: max 10 µM
How it was run: as §1

Venetoclax = compound: CC1(C)CCC(CN2CCN(c3ccc(C(=O)NS(=O)(=O)c4ccc(NCC5CCOCC5)c([N+](=O)[O-])c4)c(Oc4cnc5[nH]ccc5c4)c3)CC2)=C(c2ccc(Cl)cc2)C1 [Venetoclax]; details: max 1 µM
How it was run: as §1

AZD7648 = compound: Cc1cc2ncnn2cc1Nc1ncc2c(n1)n(C1CCOCC1)c(=O)n2C [AZD7648]; details: max 10 µM
How it was run: as §1

AZD8186 = compound: C[C@@H](Nc1cc(F)cc(F)c1)c1cc(C(=O)N(C)C)cc2c(=O)cc(N3CCOCC3)oc12 [AZD8186]; details: max 3 µM
How it was run: as §1

Trametinib = compound: CC(=O)Nc1cccc(-n2c(=O)n(C3CC3)c(=O)c3c(Nc4ccc(I)cc4F)n(C)c(=O)c(C)c32)c1 [Trametinib]; details: max 1 µM
How it was run: as §1

Gefitinib = compound: COc1cc2ncnc(Nc3ccc(F)c(Cl)c3)c2cc1OCCCN1CCOCC1 [Gefitinib]; details: max 10 µM
How it was run: as §1

Prexasertib = compound: COc1cccc(OCCCN)c1-c1cc(Nc2cnc(C#N)cn2)n[nH]1 [Prexasertib]; details: max 1 µM
How it was run: as §1

AZD6738 = compound: C[C@@H]1COCCN1C2=NC(=NC(=C2)C3(CC3)[S@](=N)(=O)C)C4=C5C=CNC5=NC=C4 [AZD6738]; details: max 10 µM
How it was run: as §1

Palbociclib = compound: CC(=O)c1c(C)c2cnc(Nc3ccc(N4CCNCC4)cn3)nc2n(C2CCCC2)c1=O [Palbociclib]; details: max 10 µM
How it was run: as §1

Dasatinib = compound: CC1=C(C(=CC=C1)Cl)NC(=O)C2=CN=C(S2)NC3=CC(=NC(=N3)C)N4CCN(CC4)CCO [Dasatinib]; details: max 2 µM
How it was run: as §1

Doxorubicin = compound: COc1cccc2c1C(=O)c1c(O)c3c(c(O)c1C2=O)C[C@@](O)(C(=O)CO)C[C@@H]3O[C@H]1C[C@H](N)[C@H](O)[C@H](C)O1 [Doxorubicin]; details: max 1 µM
How it was run: as §1

AZD1775 = compound: C=CCn1c(=O)c2cnc(Nc3ccc(N4CCN(C)CC4)cc3)nc2n1-c1cccc(C(C)(C)O)n1 [AZD1775]; details: max 3 µM
How it was run: as §1

Cell Line | IC50, cell viability 72 h (Olaparib) | IC50, cell viability 72 h (Lapatinib) | IC50, cell viability 72 h (AZD5153) | IC50, cell viability 72 h (AZD0156) | IC50, cell viability 72 h (AZD4320) | IC50, cell viability 72 h (SN-38) | IC50, cell viability 72 h (SG3199) | IC50, cell viability 72 h (Savolitinib) | IC50, cell viability 72 h (AZD5991) | IC50, cell viability 72 h (AZD2811) | IC50, cell viability 72 h (Taselisib) | IC50, cell viability 72 h (AZD1390) | IC50, cell viability 72 h (Selumetinib) | IC50, cell viability 72 h (Capivasertib) | IC50, cell viability 72 h (Crizotinib) | IC50, cell viability 72 h (Alisertib) | IC50, cell viability 72 h (Venetoclax) | IC50, cell viability 72 h (AZD7648) | IC50, cell viability 72 h (AZD8186) | IC50, cell viability 72 h (Trametinib) | IC50, cell viability 72 h (Gefitinib) | IC50, cell viability 72 h (Prexasertib) | IC50, cell viability 72 h (AZD6738) | IC50, cell viability 72 h (Palbociclib) | IC50, cell viability 72 h (Dasatinib) | IC50, cell viability 72 h (Doxorubicin) | IC50, cell viability 72 h (AZD1775)
Daudi (Burkitt's Lymphoma) | > 10000 nM | > 10000 nM | 243 nM | > 3000 nM | > 1000 nM | 8.52 nM | > 1 nM | > 1000 nM | > 1000 nM | > 1000 nM | 8260 nM | > 300 nM | > 10000 nM | > 10000 nM | 5560 nM | 884 nM | > 1000 nM | > 10000 nM | > 3000 nM | > 1000 nM | > 10000 nM | 29.2 nM | 3880 nM | > 10000 nM | 627 nM | 173 nM | 1020 nM
GRANTA-519 (B-Cell Non-Hodgkin's Lymphoma) | > 10000 nM | > 10000 nM | > 1000 nM | > 3000 nM | – | 4.06 nM | > 1 nM | > 1000 nM | > 1000 nM | > 1000 nM | > 10000 nM | > 300 nM | > 10000 nM | > 10000 nM | > 10000 nM | > 10000 nM | > 1000 nM | > 10000 nM | > 3000 nM | > 1000 nM | > 10000 nM | 17.4 nM | 1950 nM | > 10000 nM | > 2000 nM | 869 nM | 550 nM
HT-3 (Cervical Carcinoma) | > 10000 nM | > 10000 nM | > 1000 nM | > 3000 nM | > 1000 nM | 8.56 nM | > 1 nM | > 1000 nM | > 1000 nM | > 1000 nM | > 10000 nM | > 300 nM | > 10000 nM | > 10000 nM | > 10000 nM | > 10000 nM | > 1000 nM | > 10000 nM | > 3000 nM | > 1000 nM | > 10000 nM | > 1000 nM | > 10000 nM | > 10000 nM | > 2000 nM | 732 nM | 2340 nM
HT-144 (Melanoma) | > 10000 nM | 8830 nM | 981 nM | > 3000 nM | > 1000 nM | 68.1 nM | > 1 nM | > 1000 nM | 221 nM | > 1000 nM | 5010 nM | > 300 nM | 632 nM | 5450 nM | 4710 nM | > 10000 nM | > 1000 nM | > 10000 nM | > 3000 nM | 17.9 nM | > 10000 nM | 139 nM | 3480 nM | > 10000 nM | > 2000 nM | > 1000 nM | 250 nM
